The values that follow come from US7820623B2 (priority 2006, dated 2010).

Test [1] deals with thapsigargin-induced IFN-g production in human whole blood. The format is cell-based.
The subject of test [2] is thapsigargin-induced IL-2 production in human whole blood.
[3] abbreviates: read-out: Analogue Activity (IC50) WB/IFNg.
[4] abbreviates: read-out: Analogue Activity (IC50) WB/IL-2.

pIC50: −log10 of the molar value. Read-outs that look alike come from different tables or passages of the source. Bridge positions count the residues as written; N and C are the ends. Square brackets hold non-standard residues; d marks the D form. Peptide text beside a SMILES is read from it. 1Nal = N[C@@H](Cc1cccc2ccccc12)C(=O)O

As to `CC[C@H](C)[C@@H]1NC(=O)[C@H](CCCCN)NC(=O)[C@@H](NC(=O)[C@H](CCCCN)NC(=O)[C@@H](NC(=O)[C@H](CC(N)=O)NC(=O)[C@@H](NC(=O)[C@@H](NC(=O)[C@@H](NC(=O)CN)C(C)C)[C@@H](C)CC)[C@@H](C)CC)C(C)C)CSSC[C@@H]2NC(=O)[C@H](CCCCN)NC(=O)CNC(=O)[C@H](Cc3ccccc3)NC(=O)[C@H](CCCNC(=N)N)NC(=O)[C@H](CCSC)NC(=O)[C@H](CCC(=O)O)NC(=O)[C@H](C)NC(=O)[C@H](CCCCN)NC(=O)[C@H](CCCCN)NC(=O)[C@@H]3CSSC[C@@H](C(=O)N[C@H](C(=O)N4CCC[C@H]4C(=O)N[C@@H](CCCCN)C(=O)O)[C@@H](C)O)NC(=O)[C@H](Cc4c[nH]cn4)NC(=O)[C@H](CSSC[C@H](NC(=O)[C@H](CCC(N)=O)NC(=O)[C@H](CCCNC(=N)N)NC(=O)[C@H](CO)NC1=O)C(=O)N[C@@H](CC(C)C)C(=O)N[C@@H](CCC(=O)O)C(=O)N1CCC[C@H]1C(=O)N3)NC(=O)[C@H](CCCCN)NC(=O)CNC(=O)[C@H](CC(N)=O)NC(=O)[C@H](CCSC)NC2=O` [G22E] (H-GVIINVKCKISRQCLEPCKKAEMRFGKCMNGKCHCTPK-OH; disulfide 8-28, 14-33, 18-35), the pIC50 in test [1] (setting [3]) is 9.79; in test [2] (setting [4]), 9.96.

On to “AVIINVKCKISRQCLEPCKKAGMRFGKCMNGKCHCTPK [Ala-1 (SEQ ID No: 1400)]”, for which the pIC50 was 9.92 in test [1] (read-out: Average IC50 IFNg) and 9.91 in test [2] (read-out: Average IC50 IL-2).

With `CC[C@H](C)[C@@H]1NC(=O)[C@H](CCCCN)NC(=O)[C@@H](NC(=O)[C@H](CCCCN)NC(=O)[C@@H](NC(=O)[C@H](CC(N)=O)NC(=O)[C@@H](NC(=O)[C@@H](NC(=O)[C@@H](NC(=O)[C@@H](N)CCC(=O)O)C(C)C)[C@@H](C)CC)[C@@H](C)CC)C(C)C)CSSC[C@@H]2NC(=O)[C@H](CCCCN)NC(=O)CNC(=O)[C@H](Cc3ccccc3)NC(=O)[C@H](CCCNC(=N)N)NC(=O)[C@H](CCSC)NC(=O)CNC(=O)[C@H](C)NC(=O)[C@H](CCCCN)NC(=O)[C@H](CCCCN)NC(=O)[C@@H]3CSSC[C@@H](C(=O)N[C@H](C(=O)N4CCC[C@H]4C(=O)N[C@@H](CCCCN)C(=O)O)[C@@H](C)O)NC(=O)[C@H](Cc4c[nH]cn4)NC(=O)[C@H](CSSC[C@H](NC(=O)[C@H](CCC(N)=O)NC(=O)[C@H](CCCNC(=N)N)NC(=O)[C@H](CO)NC1=O)C(=O)N[C@@H](CC(C)C)C(=O)N[C@@H](CCC(=O)O)C(=O)N1CCC[C@H]1C(=O)N3)NC(=O)[C@H](CCCCN)NC(=O)CNC(=O)[C@H](CC(N)=O)NC(=O)[C@H](CCSC)NC2=O` [G1E] (H-EVIINVKCKISRQCLEPCKKAGMRFGKCMNGKCHCTPK-OH; disulfide 8-28, 14-33, 18-35), the pIC50 in test [1] (setting [3]) is 8.90; in test [2] (setting [4]), 8.91.

`CC[C@H](C)[C@@H]1NC(=O)[C@H](CCCCN)NC(=O)[C@@H](NC(=O)[C@H](CCCCN)NC(=O)[C@@H](NC(=O)[C@H](CC(N)=O)NC(=O)[C@@H](NC(=O)[C@@H](NC(=O)[C@H](Cc2cccc3ccccc23)NC(=O)CN)[C@@H](C)CC)[C@@H](C)CC)C(C)C)CSSC[C@@H]2NC(=O)[C@H](CCCCN)NC(=O)CNC(=O)[C@H](Cc3ccccc3)NC(=O)[C@H](CCCNC(=N)N)NC(=O)[C@H](CCSC)NC(=O)CNC(=O)[C@H](C)NC(=O)[C@H](CCCCN)NC(=O)[C@H](CCCCN)NC(=O)[C@@H]3CSSC[C@@H](C(=O)N[C@H](C(=O)N4CCC[C@H]4C(=O)N[C@@H](CCCCN)C(=O)O)[C@@H](C)O)NC(=O)[C@H](Cc4c[nH]cn4)NC(=O)[C@H](CSSC[C@H](NC(=O)[C@H](CCC(N)=O)NC(=O)[C@H](CCCNC(=N)N)NC(=O)[C@H](CO)NC1=O)C(=O)N[C@@H](CC(C)C)C(=O)N[C@@H](CCC(=O)O)C(=O)N1CCC[C@H]1C(=O)N3)NC(=O)[C@H](CCCCN)NC(=O)CNC(=O)[C@H](CC(N)=O)NC(=O)[C@H](CCSC)NC2=O` [V2Nal] (H-G[1Nal]IINVKCKISRQCLEPCKKAGMRFGKCMNGKCHCTPK-OH; disulfide 8-28, 14-33, 18-35): the pIC50 in test [1] (setting [3]) is 9.28; in test [2] (setting [4]), 9.12.

For `CC[C@H](C)[C@@H]1NC(=O)[C@H](CCCCN)NC(=O)[C@@H](NC(=O)[C@H](CCCCN)NC(=O)[C@@H](NC(=O)[C@H](CC(N)=O)NC(=O)[C@@H](NC(=O)[C@@H](NC(=O)[C@@H](NC(=O)CN)C(C)C)[C@@H](C)CC)[C@@H](C)CC)C(C)C)CSSC[C@@H]2NC(=O)[C@H](CCCCN)NC(=O)CNC(=O)[C@H](Cc3ccccc3)NC(=O)[C@H](CCCNC(=N)N)NC(=O)[C@H](CCSC)NC(=O)CNC(=O)[C@H](C)NC(=O)[C@H](CCCCN)NC(=O)[C@H](Cc3cccc4ccccc34)NC(=O)[C@@H]3CSSC[C@@H](C(=O)N[C@H](C(=O)N4CCC[C@H]4C(=O)N[C@@H](CCCCN)C(=O)O)[C@@H](C)O)NC(=O)[C@H](Cc4c[nH]cn4)NC(=O)[C@H](CSSC[C@H](NC(=O)[C@H](CCC(N)=O)NC(=O)[C@H](CCCNC(=N)N)NC(=O)[C@H](CO)NC1=O)C(=O)N[C@@H](CC(C)C)C(=O)N[C@@H](CCC(=O)O)C(=O)N1CCC[C@H]1C(=O)N3)NC(=O)[C@H](CCCCN)NC(=O)CNC(=O)[C@H](CC(N)=O)NC(=O)[C@H](CCSC)NC2=O` [K19Nal] (H-GVIINVKCKISRQCLEPC[1Nal]KAGMRFGKCMNGKCHCTPK-OH; disulfide 8-28, 14-33, 18-35), the pIC50 in test [1] (setting [3]) is 10.00; in test [2] (setting [4]), 10.24.

On to `CC[C@H](C)[C@@H]1NC(=O)[C@H](CCCCN)NC(=O)[C@@H](NC(=O)[C@H](CCCNC(=N)N)NC(=O)[C@@H](NC(=O)[C@H](CC(N)=O)NC(=O)[C@@H](NC(=O)[C@@H](NC(=O)[C@@H](NC(=O)CN)C(C)C)[C@@H](C)CC)[C@@H](C)CC)C(C)C)CSSC[C@@H]2NC(=O)[C@H](CCCCN)NC(=O)CNC(=O)[C@H](Cc3ccccc3)NC(=O)[C@H](CCCNC(=N)N)NC(=O)[C@H](CCSC)NC(=O)CNC(=O)[C@H](C)NC(=O)[C@H](CCCCN)NC(=O)[C@H](CCCCN)NC(=O)[C@@H]3CSSC[C@@H](C(=O)N[C@H](C(=O)N4CCC[C@H]4C(=O)N[C@@H](CCCCN)C(=O)O)[C@@H](C)O)NC(=O)[C@H](Cc4c[nH]cn4)NC(=O)[C@H](CSSC[C@H](NC(=O)[C@H](CCC(N)=O)NC(=O)[C@H](CCCNC(=N)N)NC(=O)[C@H](CO)NC1=O)C(=O)N[C@@H](CC(C)C)C(=O)N[C@@H](CCC(=O)O)C(=O)N1CCC[C@H]1C(=O)N3)NC(=O)[C@H](CCCCN)NC(=O)CNC(=O)[C@H](CC(N)=O)NC(=O)[C@H](CCSC)NC2=O` [K7R] (H-GVIINVRCKISRQCLEPCKKAGMRFGKCMNGKCHCTPK-OH; disulfide 8-28, 14-33, 18-35), for which the pIC50 in test [1] (setting [3]) is 10.15; in test [2] (setting [4]), 10.11.
